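1) Cells in 96-well plates. 2) Compound, 48 h, 5 concentrations. 3) Linear interpolation between surrounding doses. 4) Unreached endpoint = highest concentration. GI50 is the concentration that inhibits growth by half. TGI: concentration producing complete growth inhibition.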

Drawing on PubChem BioAssay (NCI), this text covers TGI and GI50 for seven compounds.

Among the test systems are A549 NSCLC; EKVX NSCLC; IGROV1 ovarian; LOX IMVI melanoma; MCF7 breast; NCI-H226 lung; NCI-H23 lung; PC-3 prostate; RXF 393 renal; SK-MEL-2 melanoma; SK-MEL-5 melanoma.
Assay in all cases: growth of human tumour cells (NCI), 48 h

For the compound `O=S(=O)(O)c1ccc2c(N=Nc3ccccc3)c(O)ccc2c1`, the TGI in the assay on A549 NSCLC, in the assay with EKVX NSCLC, in the assay with IGROV1 ovarian, with LOX IMVI melanoma, with MCF7 breast and in the assay with NCI-H226 lung was greater than 100 µM each time. Moreover, the TGI with NCI-H23 lung, in the assay on PC-3 prostate, in the assay on RXF 393 renal, in the assay with SK-MEL-2 melanoma and with SK-MEL-5 melanoma was greater than 100 µM each time.
Consider `COC(=O)c1ccc2c(c1)sc1nc(-c3ccc(OC)cc3)cn12`, for which the TGI in the assay on A549 NSCLC, in the assay with EKVX NSCLC, with IGROV1 ovarian, in the assay on LOX IMVI melanoma, in the assay on MCF7 breast and in the assay on NCI-H226 lung was greater than 100 µM throughout. In addition, the TGI is greater than 100 µM with NCI-H23 lung; greater than 100 µM in the assay on PC-3 prostate; greater than 100 µM with RXF 393 renal; greater than 100 µM in the assay with SK-MEL-2 melanoma; 53.6 µM in the assay on SK-MEL-5 melanoma.
Turning to `C=C1c2nc3ccccc3n2C=C(c2ccc(Cl)cc2)N1c1ccc(OCCN2CCCCC2)cc1`, the GI50 with A549 NSCLC, in the assay on MCF7 breast, in the assay on NCI-H23 lung, in the assay with PC-3 prostate, in the assay on RXF 393 renal and with SK-MEL-2 melanoma was greater than 100 µM throughout. In addition, the TGI was greater than 100 µM in the assay with A549 NSCLC; greater than 100 µM in the assay on EKVX NSCLC; greater than 45 µM in the assay on IGROV1 ovarian; greater than 45 µM with LOX IMVI melanoma; greater than 100 µM with MCF7 breast; greater than 100 µM with NCI-H226 lung. Also, the TGI in the assay with NCI-H23 lung is greater than 100 µM; in the assay with PC-3 prostate, greater than 100 µM; in the assay on RXF 393 renal, greater than 100 µM; in the assay with SK-MEL-2 melanoma, greater than 100 µM; in the assay with SK-MEL-5 melanoma, greater than 45 µM.
As to `Cn1cc(-c2nnc(-c3ccc(Cl)cc3)[nH]c2=O)c2ccccc21`, the TGI with A549 NSCLC is greater than 100 µM; in the assay on EKVX NSCLC, greater than 64.9 µM; in the assay on IGROV1 ovarian it was greater than 100 µM; in the assay on LOX IMVI melanoma it was greater than 100 µM; in the assay with MCF7 breast, greater than 39.6 µM; in the assay with NCI-H226 lung, 35.4 µM. The TGI in the assay with NCI-H23 lung was greater than 100 µM; with PC-3 prostate it was greater than 78.7 µM; with RXF 393 renal, greater than 22.1 µM; in the assay with SK-MEL-2 melanoma, greater than 37.3 µM; with SK-MEL-5 melanoma it was greater than 43.7 µM.
Turning to `Cc1cc2c(cc1Cl)SC(c1ccccc1O)NS2(=O)=O` (stereo not drawn), the TGI in the assay on A549 NSCLC, in the assay with EKVX NSCLC, in the assay on IGROV1 ovarian, in the assay with LOX IMVI melanoma, with MCF7 breast and in the assay on NCI-H226 lung was greater than 100 µM each time. The TGI with NCI-H23 lung, in the assay with PC-3 prostate, in the assay on RXF 393 renal, with SK-MEL-2 melanoma and in the assay with SK-MEL-5 melanoma was greater than 100 µM in each case.
Consider `O=c1[nH]c2cc([N+](=O)[O-])c(N/N=C/c3ccc(Cl)cc3Cl)c([N+](=O)[O-])c2[nH]1`, for which the TGI is greater than 100 µM in the assay with A549 NSCLC; greater than 100 µM in the assay on EKVX NSCLC; 78.3 µM in the assay on IGROV1 ovarian; greater than 100 µM in the assay on LOX IMVI melanoma; greater than 100 µM in the assay with MCF7 breast; greater than 100 µM with NCI-H226 lung. Moreover, the TGI in the assay with NCI-H23 lung is greater than 100 µM; with PC-3 prostate, greater than 100 µM; in the assay with RXF 393 renal, 40.9 µM; in the assay on SK-MEL-2 melanoma it was greater than 100 µM; in the assay with SK-MEL-5 melanoma, greater than 100 µM.
On to `O=C(O)CCCN=C(C1=C(O)C(=O)N(c2ccccc2)C1=O)c1ccccc1`, for which the TGI in the assay with A549 NSCLC, in the assay on EKVX NSCLC, with IGROV1 ovarian, in the assay on LOX IMVI melanoma, with MCF7 breast and in the assay with NCI-H226 lung was greater than 100 µM each time. For the same compound, the TGI with NCI-H23 lung, in the assay with PC-3 prostate, with RXF 393 renal, in the assay with SK-MEL-2 melanoma and in the assay with SK-MEL-5 melanoma was greater than 100 µM throughout.
